Experimental data reported in patent US7115258B2, “Vesicular monoamine transporter gene therapy in parkinson's disease” (priority 1998, dated 2006).

Test system: dopamine release
Assay: Release of stored dopamine from PFVMAA cells
Type: cell-based, rat
Conditions: 20 μM A23187 in physiological media, 20 minutes
Method: FIG. 3A and FIG. 3B. Release of stored dopamine from PFVMAA. (FIG. 3A) Time course of dopamine release from PFVMAA cells that were preincubated with 1 μM of L-DOPA for 2 hours to store dopamine (intracellular: open bar). After pre-incubation, the media was replaced with fresh media without L-DOPA and dopamine levels in the media (solid bar) were measured at one hour intervals. (FIG. 3B) The dopamine levels in the media (solid bar) and in the cell pellets (open bars) of PFVMAA cells in different calcium conditions. Cells were preincubated with 1 μM L-DOPA in the media for 3 hours, which were replaced with fresh physiological media (control), physiological media with 20 μM A23187 (Sigma), or by calcium-free media with 10 mM EGTA for 20 minutes of further incubation. Data represent the mean±SEM (n=3). n.d., nondetectable levels. n.s., no significant, * p<0.01, Student t-test analysis.
Catecholamine measurements were done in DMEM media (1 ml in each well) except for the experiments on Ca^++ effect which were done in physiological incubation medium consisting of 135 mM NaCl, 3 mM KCl, 2 mM CaCl2, 2 mM MgCl2, 10 mM glucose, 200 μM ascorbic acid, and 10 mM HEPES, pH 7.3.
To investigate the mechanism of dopamine release in the PFVMAA cells, intracellular calcium was manipulated by using calcium-free media and calcium ionophore. […]

Structure (SMILES): CNc1ccc2oc(C[C@H]3O[C@@]4(CC[C@H]3C)O[C@H]([C@H](C)C(=O)c3ccc[nH]3)[C@H](C)C[C@H]4C)nc2c1C(=O)O [calcium ionophore, A23187]
- effect on dopamine release from PFVMAA cells: trend for increased release of dopamine
